Structures can show the parent of a compound that is named as a salt.
Legend:
[1] = test system: bacterial strains that express the class D cephalosporinase OXA-15; test: Synergy MIC / standard BLI potentiation MIC assay, strains expressing OXA-15; assay type: cell-based, E. coli; details: in presence of a β-lactam; comparator Avibactam (CCC)
How it was run: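 Broth microdilution in CAMHB per CLSI M07-A9, ~10^5 CFU/mL inoculum, 18–20 h at 37 °C with aeration; engineered E. coli kept with 25 μg/mL tetracycline. β-lactam 2-fold from 128 to 0.13 μg/mL with BLI fixed at 4 μg/mL, or BLI serially diluted with β-lactam fixed; MIC is lowest concentration without visible turbidity.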

[2] = test system: bacterial strains that express KPC β-lactamases; test: Synergy MIC / standard BLI potentiation MIC assay, strains expressing KPC β-lactamases; assay type: cell-based, isogenic E. coli and clinical isolates; details: more active for at least one KPC strain and/or better spectrum; comparator Avibactam
Experimental: Unless otherwise indicated, the activity of the BLI compounds can be described by the MIC value obtained from a Synergy MIC assay or a BLI potentiation assay (e.g as described herein), both of which are run in the presence of a β-lactam.
The experimental protocol was performed according to Clinical and Laboratory Standards Institute (CLSI) guidelines with modifications as described below (CLSI guidelines can be derived from the CLSI document M07-A9 published in January 2012: “Methods for Dilution Antimicrobial Susceptibility Tests for Bacteria That Grow Aerobically; Approved Standard-Ninth Edition”).
To prepare for MIC testing, frozen glycerol stocks of clinical isolates (Klebsiella pneumoniae, Eschericia coli, Enterobacter spp, Citrobacter spp, or Pseudomonas aeruginosa) were used to streak for isolated colonies on rich, non-selective, tryptic soy agar containing 5% sheep's blood (TSAB). Frozen glycerol stocks of laboratory engineered, isogenic E. coli strains, which contain cloned β-lactamase expressing plasmids were used to streak for isolated colonies on rich, selective LB agar supplemented with 25 μg/mL tetracycline to maintain the plasmid. All strains were incubated at 37° C. for 18-24 hrs.
On the day of testing, primary cultures were started by scraping off 5-10 colonies from the TSAB plates containing clinical strains or the tetracycline supplemented LB plates containing engineered strains. The clinical strain material was suspended in ˜5 mL of cation adjusted Mueller Hinton Broth (CAMHB) in 14 mL culture tubes. The engineered strain material was suspended in CAMHB (supplemented with 25 μg/mL tetracycline) in 14 mL culture tubes. All strains were incubated at 37° C. with aeration (200 rpm) for ˜2 hrs until the optical density at 600 nm (OD600) was ≧0.1.
The two compound components of the assay were each diluted in CAMHB and added to the 96-well broth microdilution assay plates. 50 μL of the β-lactam was added to each well of the assay plate in 2-fold dilutions with final concentrations ranging from 128 to 0.13 μg/mL. 25 μL of the BLI compound was added to all wells in the broth microdilution plates at a final concentration of 4 μg/mL. Inoculum cultures were prepared by standardizing the primary cultures to OD600=0.1 and then adding 20 μL of the adjusted primary culture per 1 mL CAMHB for clinical strains or CAMHB (supplemented with tetracycline at 100 μg/mL) for engineered strains, so that the final inoculum density was ˜10^5 colony forming units per milliliter. Diluted inoculum cultures were used to inoculate 25 μL per well in 96-well broth microdilution assay plates. The final volume of each well was 100 μL and contained a β-lactam at different concentrations, a BLIcompound at 4 μg/mL concentration, the bacterial culture at an OD600 of approximately 0.001 and when necessary tetracycline at 25 μg/mL.
Plates were incubated for 18-20 hours at 37° C. with aeration (200 rpm). Following incubation, growth was confirmed visually placing plates over a viewing apparatus (stand with a mirror underneath) and then OD600 was measured using a SpectraMax 340PC384 plate reader (Molecular Devices, Sunnyvale, Calif.). Growth was defined as turbidity that could be detected with the naked eye or achieving minimum OD600 of 0.1. MIC values were defined as the lowest concentration producing no visible turbidity.
The synergy MIC (sMIC) assay determines the concentration of the BLI required to potentiate the activity of a fixed concentration of a β-lactam antibiotic against β-lactamase producing bacterial strains. The experimental protocol was performed according to Clinical and Laboratory Standards Institute (CLSI) guidelines with modifications as described below (CLSI guidelines can be derived from the CLSI document M07-A9 published in January 2012: “Methods for Dilution Antimicrobial Susceptibility Tests for Bacteria That Grow Aerobically; Approved Standard-Ninth Edition”). […]

N=C(N)N1CC(Cc2nnc([C@@H]3CC[C@@H]4CN3C(=O)N4OS(=O)(=O)O)o2)C1 [Compound 741, (2S,5R)-2-(5-((1-carbamimidoylazetidin-3-yl)methyl)-1,3,4-oxadiazol-2-yl)-7-oxo-1,6-diazabicyclo[3.2.1]octan-6-yl hydrogen sulfate]
activity against bacterial strains that express OXA-15, compared with Avibactam [1]: more active than Avibactam
activity and/or spectrum of activity against bacterial strains that express KPC β-lactamases, compared with Avibactam [2]: more active than Avibactam

N[C@H]1C[C@@H](NCc2nnc([C@@H]3CC[C@@H]4CN3C(=O)N4OS(=O)(=O)O)o2)C1 [Compound 756, (2S,5R)-2-(5-((((1s,3R)-3-aminocyclobutyl)amino)methyl)-1,3,4-oxadiazol-2-yl)-7-oxo-1,6-diazabicyclo[3.2.1]octan-6-yl hydrogen sulfate]
activity against bacterial strains that express OXA-15, compared with Avibactam [1]: more active than Avibactam
activity and/or spectrum of activity against bacterial strains that express KPC β-lactamases, compared with Avibactam [2]: more active than Avibactam

N[C@H]1C[C@H](c2nnc([C@@H]3CC[C@@H]4CN3C(=O)N4OS(=O)(=O)O)s2)C1 [Compound 783, (2S,5R)-2-(5-((1r,3S)-3-aminocyclobutyl)-1,3,4-thiadiazol-2-yl)-7-oxo-1,6-diazabicyclo[3.2.1]octan-6-yl hydrogen sulfate]
activity against bacterial strains that express OXA-15, compared with Avibactam [1]: more active than Avibactam
activity and/or spectrum of activity against bacterial strains that express KPC β-lactamases, compared with Avibactam [2]: more active than Avibactam

N=C(N)Nc1nnc([C@@H]2CC[C@@H]3CN2C(=O)N3OS(=O)(=O)O)o1 [Compound 738, (2S,5R)-2-(5-guanidino-1,3,4-oxadiazol-2-yl)-7-oxo-1,6-diazabicyclo[3.2.1]octan-6-yl hydrogen sulfate]
activity against bacterial strains that express OXA-15, compared with Avibactam [1]: more active than Avibactam
activity and/or spectrum of activity against bacterial strains that express KPC β-lactamases, compared with Avibactam [2]: more active than Avibactam

N=C1NCC(c2nnc([C@@H]3CC[C@@H]4CN3C(=O)N4OS(=O)(=O)O)o2)N1 (stereo partly drawn) [Compound 767, (2S,5R)-2-(5-(2-iminoimidazolidin-4-yl)-1,3,4-oxadiazol-2-yl)-7-oxo-1,6-diazabicyclo[3.2.1]octan-6-yl hydrogen sulfate]
activity against bacterial strains that express OXA-15, compared with Avibactam [1]: more active than Avibactam
activity and/or spectrum of activity against bacterial strains that express KPC β-lactamases, compared with Avibactam [2]: more active than Avibactam

N[C@H]1CN[C@@H](c2nnc([C@@H]3CC[C@@H]4CN3C(=O)N4OS(=O)(=O)O)o2)C1 [Compound 761, (2S,5R)-2-(5-((2R,4R)-4-aminopyrrolidin-2-yl)-1,3,4-oxadiazol-2-yl)-7-oxo-1,6-diazabicyclo[3.2.1]octan-6-yl hydrogen sulfate]
activity against bacterial strains that express OXA-15, compared with Avibactam [1]: more active than Avibactam
activity and/or spectrum of activity against bacterial strains that express KPC β-lactamases, compared with Avibactam [2]: more active than Avibactam

N[C@@H]1CN[C@H](c2nnc([C@@H]3CC[C@@H]4CN3C(=O)N4OS(=O)(=O)O)o2)C1 [Compound 760, (2S,5R)-2-(5-((2S,4S)-4-aminopyrrolidin-2-yl)-1,3,4-oxadiazol-2-yl)-7-oxo-1,6-diazabicyclo[3.2.1]octan-6-yl hydrogen sulfate]
activity against bacterial strains that express OXA-15, compared with Avibactam [1]: more active than Avibactam
activity and/or spectrum of activity against bacterial strains that express KPC β-lactamases, compared with Avibactam [2]: more active than Avibactam

NCc1nnc([C@@H]2CC[C@@H]3CN2C(=O)N3OS(=O)(=O)O)o1 [Compound 702, (2S,5R)-2-(5-(aminomethyl)-1,3,4-oxadiazol-2-yl)-7-oxo-1,6-diazabicyclo[3.2.1]octan-6-yl hydrogen sulfate]
activity against bacterial strains that express OXA-15, compared with Avibactam [1]: more active than Avibactam
activity and/or spectrum of activity against bacterial strains that express KPC β-lactamases, compared with Avibactam [2]: more active than Avibactam

O=C1N2C[C@@H](CC[C@H]2c2nnc(CN[C@@H]3CCNC3)o2)N1OS(=O)(=O)O [Compound 766, (2S,5R)-7-oxo-2-(5-(((R)-pyrrolidin-3-ylamino)methyl)-1,3,4-oxadiazol-2-yl)-1,6-diazabicyclo[3.2.1]octan-6-yl hydrogen sulfate]
activity against bacterial strains that express OXA-15, compared with Avibactam [1]: more active than Avibactam
activity and/or spectrum of activity against bacterial strains that express KPC β-lactamases, compared with Avibactam [2]: more active than Avibactam

O=C1N2C[C@@H](CC[C@H]2c2nnc(CCNC3CNC3)o2)N1OS(=O)(=O)O [Compound 745, (2S,5R)-2-(5-(2-(azetidin-3-ylamino)ethyl)-1,3,4-oxadiazol-2-yl)-7-oxo-1,6-diazabicyclo[3.2.1]octan-6-yl hydrogen sulfate]
activity against bacterial strains that express OXA-15, compared with Avibactam [1]: more active than Avibactam
activity and/or spectrum of activity against bacterial strains that express KPC β-lactamases, compared with Avibactam [2]: more active than Avibactam

N[C@@H]1CN[C@@H](c2nnc([C@@H]3CC[C@@H]4CN3C(=O)N4OS(=O)(=O)O)o2)C1 [Compound 763, (2S,5R)-2-(5-((2R,4S)-4-aminopyrrolidin-2-yl)-1,3,4-oxadiazol-2-yl)-7-oxo-1,6-diazabicyclo[3.2.1]octan-6-yl hydrogen sulfate]
activity against bacterial strains that express OXA-15, compared with Avibactam [1]: more active than Avibactam
activity and/or spectrum of activity against bacterial strains that express KPC β-lactamases, compared with Avibactam [2]: more active than Avibactam

O=C1N2C[C@@H](CC[C@H]2c2nnc(CN3CCNCC3)o2)N1OS(=O)(=O)O [Compound 777, (2S,5R)-7-oxo-2-(5-(piperazin-1-ylmethyl)-1,3,4-oxadiazol-2-yl)-1,6-diazabicyclo[3.2.1]octan-6-yl hydrogen sulfate]
activity against bacterial strains that express OXA-15, compared with Avibactam [1]: more active than Avibactam
activity and/or spectrum of activity against bacterial strains that express KPC β-lactamases, compared with Avibactam [2]: more active than Avibactam

N=C(N)NC1(Cc2nnc([C@@H]3CC[C@@H]4CN3C(=O)N4OS(=O)(=O)O)o2)CC1 [Compound 739, (2S,5R)-2-(5-((1-guanidinocyclopropyl)methyl)-1,3,4-oxadiazol-2-yl)-7-oxo-1,6-diazabicyclo[3.2.1]octan-6-yl hydrogen sulfate]
activity against bacterial strains that express OXA-15, compared with Avibactam [1]: more active than Avibactam
activity and/or spectrum of activity against bacterial strains that express KPC β-lactamases, compared with Avibactam [2]: more active than Avibactam

N[C@H]1C[C@@H](Cc2nnc([C@@H]3CC[C@@H]4CN3C(=O)N4OS(=O)(=O)O)o2)C1 [Compound 728, (2S,5R)-2-(5-(((1s,3R)-3-aminocyclobutyl)methyl)-1,3,4-oxadiazol-2-yl)-7-oxo-1,6-diazabicyclo[3.2.1]octan-6-yl hydrogen sulfate]
activity against bacterial strains that express OXA-15, compared with Avibactam [1]: more active than Avibactam
activity and/or spectrum of activity against bacterial strains that express KPC β-lactamases, compared with Avibactam [2]: more active than Avibactam

N[C@@H]1CC[C@H](c2nnc([C@@H]3CC[C@@H]4CN3C(=O)N4OS(=O)(=O)O)o2)C1 [Compound 729, (2S,5R)-2-(5-((1S,3R)-3-aminocyclopentyl)-1,3,4-oxadiazol-2-yl)-7-oxo-1,6-diazabicyclo[3.2.1]octan-6-yl hydrogen sulfate]
activity against bacterial strains that express OXA-15, compared with Avibactam [1]: more active than Avibactam
activity and/or spectrum of activity against bacterial strains that express KPC β-lactamases, compared with Avibactam [2]: more active than Avibactam

Source: patent US8933233B2, “1,3,4-oxadiazole and 1,3,4-thiadiazole β-lactamase inhibitors” (priority 2012, dated 2015)
